Laboratory results as given in ChEMBL document CHEMBL1201862, “PubChem BioAssay data set” (2004).
Active and inactive are the calls of the source.

What was measured:
[1] = THP-1 cell cytotoxicity, dose response, cytotoxicity control for non-replicating M. tuberculosis project (AID 489025); assay type: functional
cells [2] = assay type: functional
Aminopeptidase N = molecular target: T1, Aminopeptidase N (Plasmodium falciparum FcB1/Columbia, UniProt O96935); experiment: P. falciparum M1AAP inhibitors, biochemical, fluorogenic H-Leu-NHMec substrate, 1536-well (AID 1445); set-up: species or system Plasmodium falciparum 3D7, 3D7
T1 sequence (O96935 whole entry): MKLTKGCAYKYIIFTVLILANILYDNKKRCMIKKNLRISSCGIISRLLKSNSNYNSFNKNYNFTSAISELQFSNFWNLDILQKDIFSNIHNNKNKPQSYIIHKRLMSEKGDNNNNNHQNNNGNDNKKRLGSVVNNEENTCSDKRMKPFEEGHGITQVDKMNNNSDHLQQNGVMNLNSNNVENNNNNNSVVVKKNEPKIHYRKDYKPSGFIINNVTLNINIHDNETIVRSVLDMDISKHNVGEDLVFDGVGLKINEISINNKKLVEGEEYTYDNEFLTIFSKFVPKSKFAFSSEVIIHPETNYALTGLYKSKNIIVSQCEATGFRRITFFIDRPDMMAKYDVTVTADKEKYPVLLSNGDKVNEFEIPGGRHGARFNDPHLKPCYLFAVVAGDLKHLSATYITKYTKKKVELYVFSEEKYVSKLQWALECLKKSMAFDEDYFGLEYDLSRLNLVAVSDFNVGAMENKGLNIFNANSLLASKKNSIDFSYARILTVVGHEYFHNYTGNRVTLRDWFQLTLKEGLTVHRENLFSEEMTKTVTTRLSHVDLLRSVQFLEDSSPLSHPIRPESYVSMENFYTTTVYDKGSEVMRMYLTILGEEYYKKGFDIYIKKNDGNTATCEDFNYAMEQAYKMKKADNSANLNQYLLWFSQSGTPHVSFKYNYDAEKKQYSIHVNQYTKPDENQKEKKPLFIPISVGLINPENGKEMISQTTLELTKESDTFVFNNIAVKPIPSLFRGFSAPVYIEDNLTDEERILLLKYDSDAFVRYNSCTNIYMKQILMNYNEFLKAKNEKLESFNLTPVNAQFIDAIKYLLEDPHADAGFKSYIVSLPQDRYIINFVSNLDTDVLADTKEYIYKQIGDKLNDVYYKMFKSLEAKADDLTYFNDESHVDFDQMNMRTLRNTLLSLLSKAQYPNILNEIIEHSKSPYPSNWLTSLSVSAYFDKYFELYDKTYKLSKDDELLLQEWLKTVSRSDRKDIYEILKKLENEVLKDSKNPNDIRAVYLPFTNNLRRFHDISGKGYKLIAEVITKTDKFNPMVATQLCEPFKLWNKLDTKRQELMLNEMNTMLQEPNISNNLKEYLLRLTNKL

[3] = inhibitors of PGC1a acetylation in cells, dose response, cell-based, cherry-picked samples (AID 720514); assay type: functional;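 also: potency may reflect raised or lowered acetylation signal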
[4] = intracellular Trypanosoma cruzi inhibitors in host cells – cell-based, plate reader, cherry-pick samples, set 3, dose response (AID 651818); assay type: functional;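 also: compounds incubated with infected cells for about four days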
Nonstructural protein 1 = Nonstructural protein 1 (Influenza A virus, UniProt Q194T2); assay type: functional, Influenza A virus (A/California/07/2009(H1N1))
Chain of Nonstructural protein 1 (Q194T2 whole entry): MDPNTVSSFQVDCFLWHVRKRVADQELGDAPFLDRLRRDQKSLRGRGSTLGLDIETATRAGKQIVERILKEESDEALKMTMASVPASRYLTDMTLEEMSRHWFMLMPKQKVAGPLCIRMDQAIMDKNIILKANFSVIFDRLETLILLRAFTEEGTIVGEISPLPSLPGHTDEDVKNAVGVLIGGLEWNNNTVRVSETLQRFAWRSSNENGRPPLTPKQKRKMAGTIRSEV

[5] = molecular target: T2, Replicative DNA helicase DnaB (Mycobacterium tuberculosis, UniProt P9WMR3); experiment: DnaB intein splicing inhibitors, dose response, biochemical, cell-free fluorescence (AID 449749); assay type: functional
T2 sequence (P9WMR3 whole entry): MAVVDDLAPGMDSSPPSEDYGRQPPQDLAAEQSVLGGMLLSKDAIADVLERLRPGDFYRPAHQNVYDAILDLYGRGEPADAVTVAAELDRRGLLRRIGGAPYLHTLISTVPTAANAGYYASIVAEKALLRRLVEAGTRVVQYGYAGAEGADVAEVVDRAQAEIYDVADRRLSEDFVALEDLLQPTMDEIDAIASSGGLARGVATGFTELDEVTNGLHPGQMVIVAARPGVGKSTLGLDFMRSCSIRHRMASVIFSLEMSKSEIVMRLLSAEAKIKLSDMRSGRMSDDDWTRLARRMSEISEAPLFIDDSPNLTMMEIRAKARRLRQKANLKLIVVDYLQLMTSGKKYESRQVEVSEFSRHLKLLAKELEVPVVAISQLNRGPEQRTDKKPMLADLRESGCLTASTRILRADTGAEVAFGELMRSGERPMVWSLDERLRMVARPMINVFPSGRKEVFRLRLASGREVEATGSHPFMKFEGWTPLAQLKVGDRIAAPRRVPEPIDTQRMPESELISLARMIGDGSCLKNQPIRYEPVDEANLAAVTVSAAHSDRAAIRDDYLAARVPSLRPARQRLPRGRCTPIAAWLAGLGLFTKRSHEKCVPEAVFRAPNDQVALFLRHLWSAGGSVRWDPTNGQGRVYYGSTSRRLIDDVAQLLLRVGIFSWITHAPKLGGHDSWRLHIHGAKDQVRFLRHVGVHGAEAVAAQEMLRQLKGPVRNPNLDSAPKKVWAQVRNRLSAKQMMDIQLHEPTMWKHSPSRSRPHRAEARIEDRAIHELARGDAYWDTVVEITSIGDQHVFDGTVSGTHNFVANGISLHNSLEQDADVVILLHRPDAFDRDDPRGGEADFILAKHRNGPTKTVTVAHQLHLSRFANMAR

Protein RecA = molecular target: T3, Protein RecA (Mycobacterium tuberculosis, UniProt P9WHJ3); experiment: Fluorescence Cell-Free Homogeneous Dose Retest to Identify Inhibitors of RecA-Intein Splicing Activity. [Related pubchem assays (depositor defined):AID2097, AID2223, AID489010, AID492950]; assay type: functional
T3 sequence (P9WHJ3 whole entry): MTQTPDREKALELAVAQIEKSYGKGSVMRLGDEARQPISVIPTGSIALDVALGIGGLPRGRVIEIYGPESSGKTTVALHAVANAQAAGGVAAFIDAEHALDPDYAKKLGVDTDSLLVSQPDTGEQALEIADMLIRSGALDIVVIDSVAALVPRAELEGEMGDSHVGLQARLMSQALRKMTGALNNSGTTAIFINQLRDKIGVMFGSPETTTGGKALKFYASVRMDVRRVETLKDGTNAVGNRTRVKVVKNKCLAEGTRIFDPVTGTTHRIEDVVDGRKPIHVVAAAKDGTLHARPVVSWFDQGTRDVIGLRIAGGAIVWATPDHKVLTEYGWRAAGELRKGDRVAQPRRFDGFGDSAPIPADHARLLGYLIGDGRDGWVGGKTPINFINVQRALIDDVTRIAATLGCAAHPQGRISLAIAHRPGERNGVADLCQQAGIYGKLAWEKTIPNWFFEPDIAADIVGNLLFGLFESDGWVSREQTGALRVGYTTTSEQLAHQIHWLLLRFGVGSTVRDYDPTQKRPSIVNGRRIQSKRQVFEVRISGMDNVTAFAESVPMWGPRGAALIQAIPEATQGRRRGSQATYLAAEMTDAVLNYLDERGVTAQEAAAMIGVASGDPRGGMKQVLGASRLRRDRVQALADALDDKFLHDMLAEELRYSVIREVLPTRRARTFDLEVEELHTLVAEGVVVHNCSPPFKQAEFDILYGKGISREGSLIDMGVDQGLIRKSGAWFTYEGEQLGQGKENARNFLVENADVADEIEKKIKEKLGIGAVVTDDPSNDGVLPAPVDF

[6] = HEp-2 cell cytotoxicity, dose response, cytotoxicity control for RSV inhibitor project, HTS (AID 2410); assay type: functional; settings: human respiratory syncytial virus
cells [7] = experiment: cells
[8] = HepG2 cell cytotoxicity, dose response, cytotoxicity control for Shn3 inhibitor project, CellTiter-Glo, cherry-picked (AID 624134); assay type: functional, cell-based
[9] = control 3'UTR Renilla luciferase suppression, dose response, counter-screen for Shn3 inhibitor project, cell-based, Clone20-Shn3RL, cherry-picked (AID 624133); assay type: functional
[10] = inhibitors of HIV Env-driven cell fusion, dose response, cherry-pick (AID 652057); assay type: functional, cell-based
[11] = inhibitors of clade B AD8 Env fusion, dose response, cell-based, cherry-pick (AID 652062); assay type: functional;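 also: luciferase signal from cell-cell fusion driven by HIV-1 clade B AD8 Env; potency is for inhibitors of fusion seen as a drop in luminescence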
[12] = molecular target: T4, Heat shock factor protein 1 (Mus musculus, UniProt P38532); experiment: HSF1 potentiators in luciferase reporter cells, confirmation, cell-based, NIH3T3, luminescence, dose retest (AID 435004); assay type: functional;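 also: stress induced by proteasome inhibitor MG132 added 30 min after compound; luciferase reporter driven by HSF1 response element in NIH3T3 cells; actives raise luminescence as potentiators of the MG132 stress response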
T4 sequence (P38532 whole entry): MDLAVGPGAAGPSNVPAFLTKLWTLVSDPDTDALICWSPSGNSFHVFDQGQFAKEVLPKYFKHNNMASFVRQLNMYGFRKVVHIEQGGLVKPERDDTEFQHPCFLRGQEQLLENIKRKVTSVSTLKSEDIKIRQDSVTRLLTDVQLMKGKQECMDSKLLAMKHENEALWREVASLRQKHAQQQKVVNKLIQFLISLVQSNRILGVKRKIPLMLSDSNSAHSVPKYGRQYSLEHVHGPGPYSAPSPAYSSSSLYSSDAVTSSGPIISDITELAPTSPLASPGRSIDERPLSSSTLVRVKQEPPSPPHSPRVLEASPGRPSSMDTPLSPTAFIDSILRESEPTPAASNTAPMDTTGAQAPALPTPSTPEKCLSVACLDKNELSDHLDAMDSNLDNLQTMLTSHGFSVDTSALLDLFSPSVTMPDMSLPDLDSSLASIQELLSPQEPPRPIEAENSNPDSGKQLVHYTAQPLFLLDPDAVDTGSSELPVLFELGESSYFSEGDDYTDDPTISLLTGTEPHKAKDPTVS

[13] = Luminescence Cell-Based Dose Confirmation HTS to Identify Activators of 5'UTR Stem-Loop Driven Alpha-Synuclein mRNA Translation in H4 Neuroglioblastoma Cells. [Related pubchem assays: 1829 (Project Summary), 1814 (Primary HTS)]; assay type: functional
[14] = Luminescence Cell-Based Dose Response HTS to Identify Activators of Luciferase Translation or Activity in H4 […] Cells. [Related pubchem assays: 1829 (Project Summary), 1814 (Primary HTS)]; assay type: functional
cells [15] = assay type: functional, cell-based
H4 = experiment: Luminescence Cell-Based Dose Response HTS to Identify Activators of 5'UTR Stem-Loop Driven Prion Protein mRNA Translation in H4 Neuroglioblastoma Cells. [Related pubchem assays: 1829 (Project Summary), 1814 (Primary HTS)]; assay type: functional; settings: Homo sapiens
cells [16] = assay type: functional, cell-based; remark: listed apart in the source

O=c1c2cc(Cl)ccc2oc2nc3n(c(=O)c12)CCCS3
CC50 [1]: > 40 µM (active) | IC50 (cells [2]): 2.92 µM (active)

COc1ccc(S(=O)(=O)NC2=NC(=O)/C(=C\c3ccco3)S2)cc1
IC50 (Aminopeptidase N): 99.1 µM (active)

COc1ccc(C(=O)NNC(=O)CSc2nnc(-c3ccc(O)cc3)n2C)cc1
IC50 (Aminopeptidase N): 56.8 µM (active)

Cc1cc(OCC(=O)NNC(=O)c2cnccn2)cc(C)c1Cl
AC50 [3]: 29.6 µM (active)

CC(=O)N1C(=O)/C(=C2\SC(=S)N(NS(=O)(=O)c3ccc(C)cc3)C2=O)c2ccccc21
IC50 (Aminopeptidase N): 3.22 µM (active)

C[C@H](CO)N1C[C@H](C)[C@@H](CN(C)Cc2ccc(-c3ccccc3)cc2)Oc2ccc(NS(=O)(=O)c3ccccc3)cc2C1=O
AC50 [4]: 4.49 µM (active)

Cc1ccc2c(c1)-c1c(ssc1=S)C(C)(C)N2C(=O)CSC1=NCCS1
IC50 (Nonstructural protein 1): 24.9 µM (active) | AC50 [5]: 28.3 µM (active) | EC50 (Protein RecA): 9.8 µM (active)

C[C@@H]1CCCCO[C@@H](CN(C)Cc2ccc(C(F)(F)F)cc2)[C@@H](C)CN([C@H](C)CO)C(=O)c2cc(NC(=O)NC3CCCCC3)ccc2O1
AC50 [4]: 6.76 µM (active)

CC(C)[C@H](NC(=O)N1CCn2c1nc1ccccc12)C(=O)NCc1ccccc1Cl
CC50 [6]: 46.3 µM (active) | IC50 (cells [7]): 35.8 µM (active)

Cc1ccc(-n2c(=O)c3sccc3n(Cc3cc(=O)n4ccccc4n3)c2=O)cc1F
IC50 (cells [7]): 9.86 µM (active)

CC1=NN(c2cccc([N+](=O)[O-])c2)C(=O)C1
AC50 [5]: 14.4 µM (active) | EC50 (Protein RecA): 19.5 µM (active) | AC50 [8]: > 70 µM (inactive) | AC50 [9]: 29.5 µM (active)

COc1ccc(NC(=O)N(C)C[C@H]2Oc3c(NS(=O)(=O)c4ccc(F)cc4)cccc3C(=O)N([C@@H](C)CO)C[C@H]2C)cc1
AC50 [4]: 4.14 µM (active)

C[C@@H]1CN([C@@H](C)CO)S(=O)(=O)c2ccc(-c3ccc(F)cc3)cc2O[C@H]1CN(C)C(=O)C1CCCCC1
AC50 [3]: 17.1 µM (active)

C[C@H](C(=O)N(C)C[C@@H]1OCc2ccccc2-c2ccccc2C(=O)N([C@H](C)CO)C[C@@H]1C)c1ccccc1
AC50 [10]: < 0.26 µM (active) | AC50 [11]: < 0.26 µM (active)

COCCOc1ccc(C(F)(F)F)cc1NC(=O)CN1C(=O)NC2(CCCc3ccccc32)C1=O (stereo not given)
AC50 [3]: 33.9 µM (active)

C[C@H]1CN([C@@H](C)CO)C(=O)c2cccc(NC(=O)c3nc4ccccc4s3)c2O[C@@H]1CN(C)Cc1ccc(-c2ccccc2)cc1
AC50 [4]: 1.22 µM (active)

CCOc1ccc(CNc2ccc(N3CCN(Cc4ccccc4)CC3)cc2)cc1
IC50 (Nonstructural protein 1): 49.6 µM (active) | EC50 [12]: > 260 µM (inactive)

CCc1ccc(OCC(=O)Nc2ccncc2)c(Br)c1
EC50 [13]: 13.9 µM (active) | EC50 [14]: 17.4 µM (active) | EC50 (cells [15]): > 350 µM (not active) | EC50 (H4): > 120 µM (not active) | EC50 (cells [16]): > 350 µM (not active) | CC50 [1]: > 40 µM (active) | IC50 (cells [2]): 38.1 µM (active)

Cc1cc(C)c(NC(=O)c2ccc(S(=O)(=O)N(C)C)cc2)c(C)n1
AC50 [3]: 29.4 µM (active)

C[C@@H]1CCCCO[C@H](CN(C)Cc2ccc(C(F)(F)F)cc2)[C@@H](C)CN([C@H](C)CO)C(=O)c2cc(NC(=O)Nc3cccc4ccccc34)ccc2O1
AC50 [4]: 2.91 µM (active)
